# Data from patent publication EP2925336B1, “NATURAL COMPOUNDS FOR USE IN THE TREATMENT OF BETA-2 ADRENERGIC RECEPTOR RELATED DISEASES” (Harmonic Pharma, priority 2012, dated 2014).
# Legend:
# [1] = target: human β2-adrenergic receptor (Homo sapiens, UniProt P07550); test: agonist effect on the human β2-adrenergic receptor, cellular cAMP accumulation assay (HTRF); assay type: cell-based; settings: recombinant CHO cells; for EC50: 30 minutes at room temperature, read-out: ECso; for β2 adrenergic receptor agonist activity: summary in words
# Source text: We then have tested the in vitro activity of (-)-hydroxymatairesinol (two epimers; 7S,8R,8'R and 7R,8R,8'R), (-)(7S,8R,8'R)-hydroxymatairesinol, (+)-lariciresinol, (-)-secoisolariciresinol, knot-wood extracts of Picea abies and Abies alba against β2-adrenergic receptor, in a cellular based assay, according to the Table 1 below (Baker J.G. (2005), Brit. J. Pharmacol., 144: 317). Table 1: Test of the agonist effect of compounds on the human β2-adrenergic receptor
# Mammalian recombinant cells (CHO cells) stably expressing human β2-adrenergic receptor were suspended in HBSS buffer (Invitrogen) complemented with 20 mM HEPES (pH 7.4) and 500 µM IBMX, then distributed in microplates at a density of 10^4 cells/well and incubated for 30 min at room temperature in the presence of HBSS (basal control), the test compound or the reference agonist. For stimulated control measurement, separate assay wells contained 100 nM isoproterenol. Following incubation, the cells were lysed and the fluorescence acceptor (D2-labeled cAMP) and fluorescence donor (anti-cAMP antibody labeled with europium cryptate) were added. After 60 min at room temperature, the fluorescence transfer was measured at λex=337 nm and λem=620 and 665 nm using a microplate reader (Rubystar, BMG). The cAMP concentration was determined by dividing the signal measured at 665 nm by that measured at 620 nm (ratio). Results are expressed as a percent of the control response to 100 nM isoproterenol. The standard reference agonist is isoproterenol, which was tested in each experiment at several concentrations to generate a concentration-response curve from which its EC50 value was calculated.
# The knot-wood extract for use of the invention as well as the lignans for use of the invention were tested at a concentration of 10^-5 M. Results are presented in Figure 4, and are expressed as a percentage of control agonist response, wherein 100% corresponds to the agonist response measured when cells are treated with 0.1 µM isoproterenol.
# Then, we measured the corresponding EC50. EC50 represents the half maximal effective concentration, and refers to the concentration of a compound which induces a response halfway between the baseline and maximum.
# TNF-α [2] = test: elastase lung injury model, TNF-α in bronchoalveolar lavage fluid (ELISA); assay type: in vivo, mice; settings: elastase group vs control group; HMR 30 mg/kg intratracheal instillation 15 min before elastase; BAL fluid after 24 hours; p < 0.05
# Description: (§1) Male C57B1/6 WT mice (n=35) weighing between 20 and 25 g and aged of 8 weeks were obtained from Janvier Labs (Saint Berthevin, France) and were housed in the animal facility of the laboratory, with free access to water and food, for at least 1 week before the beginning of the experimentation.
# (§2) The mice were randomly divided into six groups (n = 5-6/group). At t=0, mice were submitted to intratracheal instillation with lignan of the invention (HMR with a purity of 95%, 30 mg/kg body wt dissolved in PBS containing 1% DMSO) or with PBS with 1% DMSO. At t=15 min, mice were submitted to instillation either with 30 µl of elastase (1UI diluted in PBS) or 30 µl of LPS (10 µg/ml diluted in PBS) or 30 µl of PBS containing 1% DMSO. Mice were anesthetized with 150 µl of a solution containing xylazine 10% and ketamine 10% and sacrificed after 24 hours, and the bronchoalveolar lavage (BAL) fluid was collected for subsequent analyses.
# (§3) Lungs were washed twice with 1ml of PBS then centrifuged at 10,000 rpm at 4°C for 10 min, and the resulting supernatant of the BAL was aliquoted as 210 µl samples and used for TNF-α cytokine protein quantification using an ELISA kit (mouse TNF-alpha DuoSet; R&D Systems Europe, Ltd., France).
# TNF-α [3] = test: LPS lung injury model, TNF-α in bronchoalveolar lavage fluid (ELISA); assay type: in vivo, mice; settings: LPS group vs control group; HMR 30 mg/kg intratracheal instillation 15 min before LPS; BAL fluid after 24 hours; p < 0.05
# Description: as §1, §2, §3
# TNF-α [4] = test: cigarette smoke-induced lung injury model, TNF-α in bronchoalveolar lavage fluid (ELISA); assay type: in vivo; settings: mice exposed to cigarette smoke vs non-treated mice; HMR 30 mg/kg intratracheal instillation daily for 4 days; BAL fluid at day 5; p < 0.05
# Description: Male C57B1/6 WT mice (n=36) weighting between 20 and 25 g and aged of 9 weeks were obtained from Janvier Labs (Saint Berthevin, France) and were housed in the animal facility of the laboratory, with free access to water and food, for at least 1 week before the beginning of the experimentation.
# The mice were randomly divided into six groups (n = 6/group). Mice were submitted to intratracheal instillation with 50 µl lignan of the invention (HMR with a purity of 95%, 30 mg/kg body wt dissolved in PBS containing 5%DMSO) or with PBS with 5% DMSO daily: After 3 hours mice were exposed to ambient air (AA) or to cigarette smoke (CS; 18 cigarettes per hour) for 3 hours.
# This procedure was repeated 4 days. Mice were anesthetized with 250 µl of a solution containing xylazine 10% and ketamine 10% and were sacrificed at day 5. The BAL fluid was collected for analyses.
# Lungs were washed twice with 1ml of PBS then centrifuged at 10,000 rpm at 4°C for 10 min, and the resulting supernatant of the BAL was aliquoted as 210 µl samples and used for TNF-α cytokine protein quantification using an ELISA kit (mouse TNFalpha DuoSet; R&D Systems Europe, Ltd., France).
# Chain of human β2-adrenergic receptor (P07550 whole entry): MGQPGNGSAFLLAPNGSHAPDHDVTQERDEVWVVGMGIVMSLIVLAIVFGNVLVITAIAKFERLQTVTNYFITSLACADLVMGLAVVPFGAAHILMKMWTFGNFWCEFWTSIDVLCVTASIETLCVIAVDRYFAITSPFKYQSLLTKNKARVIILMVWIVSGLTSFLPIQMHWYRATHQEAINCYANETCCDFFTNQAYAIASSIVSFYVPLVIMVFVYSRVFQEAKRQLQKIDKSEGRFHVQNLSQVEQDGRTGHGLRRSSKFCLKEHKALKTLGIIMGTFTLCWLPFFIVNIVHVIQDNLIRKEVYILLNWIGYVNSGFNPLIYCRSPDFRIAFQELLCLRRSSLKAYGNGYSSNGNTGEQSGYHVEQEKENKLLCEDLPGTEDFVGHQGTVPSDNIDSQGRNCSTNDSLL
EC50 [1],SMILES,β2 adrenergic receptor agonist activity [1],level of TNF-α (TNF-α [2]),level of TNF-α (TNF-α [3]),level of TNF-α (TNF-α [4])
2500 nM,"COc1cc(C[C@@H](CO)[C@H](CO)Cc2ccc(O)c(OC)c2)ccc1O [Seco, (-)-Secoisolariciresinol]",strong β2 adrenergic receptor agonist activity,–,–,–
1700 nM,"COc1cc(C[C@H]2CO[C@H](c3ccc(O)c(OC)c3)[C@H]2CO)ccc1O [Lari, (+)-lariciresinol]",strong β2 adrenergic receptor agonist activity,–,–,–
1500 nM,"COc1cc(CC2C(=O)OCC2C(O)c2ccc(O)c(OC)c2)ccc1O (single isomer, unassigned; (-)) [HMR2]",strong β2 adrenergic receptor agonist activity,–,–,–

SMILES,EC50 [1],β2 adrenergic receptor agonist activity [1],level of TNF-α (TNF-α [2]),level of TNF-α (TNF-α [3]),level of TNF-α (TNF-α [4])
"COc1cc(C[C@H]2C(=O)OC[C@@H]2C(O)c2ccc(O)c(OC)c2)ccc1O (mixture of isomers) [HMR, (-) hydroxymatairesinol (2 epimers: 7S,8R,8'R and 7R,8R,8'R)]",350 nM,strong β2 adrenergic receptor agonist activity,significantly reduced,significantly reduced,significant reduced level
